{"source": "paper PMC5728361", "about": "(Structure (London, England : 1993), 2017)", "target": "PLC-δ1 PH domain (Homo sapiens, UniProt P51178)", "sequence (P51178 21-130)": "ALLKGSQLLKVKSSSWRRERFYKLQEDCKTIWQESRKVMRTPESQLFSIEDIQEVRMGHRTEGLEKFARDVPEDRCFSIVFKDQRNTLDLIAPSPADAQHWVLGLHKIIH", "format": "binding", "settings": "pH 7.5"}
{"substance": "L-α-phosphatidylinositol-4,5-bisphosphate [PI(4,5)P2]", "values": [{"measurement": "PIP-binding specificity of PLC-δ1 PH domain", "result": "binding specificity"}]}
